Results from ChEMBL document CHEMBL3885861, “Open TG-GATES”.

Species: Rattus norvegicus
Assay: Open TG-GATES - Regimen: Daily Repeat
Assay type: toxicity, organism-based, Sprague-Dawley
Set-up: regimen Daily Repeat, gender Male, age 6 weeks
Conditions: in vivo, po, 30 mg/kg, route gavage, dose level Low; for APTT / Bas / Eos / Fbg / Hb / Ht / Lym / MCH / MCHC / MCV / Mono / Neu / PT / Plat / RBC / Ret / WBC: tissue Blood; for KIDNEY_L / KIDNEY_R / KIDNEY_TOTAL: tissue Kidney; for LIVER: tissue Liver; for A/G / ALP / ALT / AST / BUN / CRE / Ca / Cl / DBIL / GLC / IP / K / LDH / Na / PL / RALB / TBIL / TC / TG / TP / gamma-GTP: tissue Plasma

SMILES: CCCNC(=O)NS(=O)(=O)c1ccc(Cl)cc1 [CHLORPROPAMIDE]
- TERMINAL_BW (72 h, time 3 day): 215.3 g
- APTT (72 h, time 3 day): 21.2 s
- Bas (72 h, time 3 day): 0%
- Eos (72 h, time 3 day): 1.2%
- Fbg (72 h, time 3 day): 265 mg/dL
- Hb (72 h, time 3 day): 13.2 g/dL
- Ht (72 h, time 3 day): 39.6%
- Lym (72 h, time 3 day): 80.6%
- MCH (72 h, time 3 day): 21.1 pg
- MCHC (72 h, time 3 day): 33.2%
- MCV (72 h, time 3 day): 63.3 fL
- Mono (72 h, time 3 day): 2.4%
- Neu (72 h, time 3 day): 15%
- PT (72 h, time 3 day): 15.8 s
- Plat (72 h, time 3 day): 116.1 x10_4/uL
- RBC (72 h, time 3 day): 626 x10_4/ul
- Ret (72 h, time 3 day): 7%
- WBC (72 h, time 3 day): 83.4 x10_2/uL
- KIDNEY_L (72 h, time 3 day): 0.9 g
- KIDNEY_R (72 h, time 3 day): 0.9 g
- KIDNEY_TOTAL (72 h, time 3 day): 1.8 g
- LIVER (72 h, time 3 day): 10.1 g
- A/G (72 h, time 3 day): 0.9
- ALP (72 h, time 3 day): 1696 IU/L
- ALT (72 h, time 3 day): 49.6 IU/L
- AST (72 h, time 3 day): 73.2 IU/L
- BUN (72 h, time 3 day): 17.8 mg/dL
- CRE (72 h, time 3 day): 0.2 mg/dL
- Ca (72 h, time 3 day): 10.6 mg/dL
- Cl (72 h, time 3 day): 106 meq/L
- DBIL (72 h, time 3 day): 0.01 mg/dL
- GLC (72 h, time 3 day): 174 mg/dL
- IP (72 h, time 3 day): 7.5 mg/dL
- K (72 h, time 3 day): 4.1 meq/L
- LDH (72 h, time 3 day): 80.8 IU/L
- Na (72 h, time 3 day): 143.2 meq/L
- PL (72 h, time 3 day): 151 mg/dL
- RALB (72 h, time 3 day): 2.6 g/dL
- TBIL (72 h, time 3 day): 0.024 mg/dL
- TC (72 h, time 3 day): 78.8 mg/dL
- TG (72 h, time 3 day): 108 mg/dL
- TP (72 h, time 3 day): 5.7 g/dL
- gamma-GTP (72 h, time 3 day): 1 IU/L
- TERMINAL_BW ([…], time 7 day): 245.8 g
- TERMINAL_BW ([…], time 14 day): 303 g
- TERMINAL_BW ([…], time 28 day): 389 g
- APTT ([…], time 7 day): 19.1 s
- Bas ([…], time 7 day): 0%
- Eos ([…], time 7 day): 1%
- Fbg ([…], time 7 day): 284.8 mg/dL
- Hb ([…], time 7 day): 13.7 g/dL
- Ht ([…], time 7 day): 41.3%
- Lym ([…], time 7 day): 79.6%
- MCH ([…], time 7 day): 21.3 pg
- MCHC ([…], time 7 day): 33.2%
- MCV ([…], time 7 day): 64.2 fL
- Mono ([…], time 7 day): 1.8%
- Neu ([…], time 7 day): 16.2%
- PT ([…], time 7 day): 15.5 s
- Plat ([…], time 7 day): 127.7 x10_4/uL
- RBC ([…], time 7 day): 643 x10_4/ul
- Ret ([…], time 7 day): 5.9%
- WBC ([…], time 7 day): 95.2 x10_2/uL
- APTT ([…], time 14 day): 16.7 s
- Bas ([…], time 14 day): 0%
- Eos ([…], time 14 day): 0.8%
- Fbg ([…], time 14 day): 263 mg/dL
- Hb ([…], time 14 day): 14.3 g/dL
- Ht ([…], time 14 day): 43.2%
- Lym ([…], time 14 day): 79.6%
- MCH ([…], time 14 day): 20.8 pg
- MCHC ([…], time 14 day): 33.2%
- MCV ([…], time 14 day): 62.7 fL
- Mono ([…], time 14 day): 2.6%
- Neu ([…], time 14 day): 15.6%
- PT ([…], time 14 day): 16.1 s
- Plat ([…], time 14 day): 107.2 x10_4/uL
- RBC ([…], time 14 day): 688.6 x10_4/ul
- Ret ([…], time 14 day): 4.6%
- WBC ([…], time 14 day): 100.6 x10_2/uL
- APTT ([…], time 28 day): 18.8 s
- Bas ([…], time 28 day): 0%
- Eos ([…], time 28 day): 1%
- Fbg ([…], time 28 day): 296.4 mg/dL
- Hb ([…], time 28 day): 14.9 g/dL
- Ht ([…], time 28 day): 45.1%
- Lym ([…], time 28 day): 78.8%
- MCH ([…], time 28 day): 19.4 pg
- MCHC ([…], time 28 day): 33%
- MCV ([…], time 28 day): 58.9 fL
- Mono ([…], time 28 day): 2.8%
- Neu ([…], time 28 day): 16.2%
- PT ([…], time 28 day): 16 s
- Plat ([…], time 28 day): 106.6 x10_4/uL
- RBC ([…], time 28 day): 766.6 x10_4/ul
- Ret ([…], time 28 day): 2.5%
- WBC ([…], time 28 day): 98 x10_2/uL
- KIDNEY_L ([…], time 7 day): 1 g
- KIDNEY_R ([…], time 7 day): 1 g
- KIDNEY_TOTAL ([…], time 7 day): 2 g
- KIDNEY_L ([…], time 14 day): 1.2 g
- KIDNEY_R ([…], time 14 day): 1.2 g
- KIDNEY_TOTAL ([…], time 14 day): 2.4 g
- KIDNEY_L ([…], time 28 day): 1.4 g
- KIDNEY_R ([…], time 28 day): 1.4 g
- KIDNEY_TOTAL ([…], time 28 day): 2.8 g
- LIVER ([…], time 7 day): 11.3 g
- LIVER ([…], time 14 day): 13.3 g
- LIVER ([…], time 28 day): 16.1 g
- A/G ([…], time 7 day): 0.8
- ALP ([…], time 7 day): 1568.6 IU/L
- ALT ([…], time 7 day): 42 IU/L
- AST ([…], time 7 day): 66.8 IU/L
- BUN ([…], time 7 day): 16.2 mg/dL
- CRE ([…], time 7 day): 0.2 mg/dL
- Ca ([…], time 7 day): 10.9 mg/dL
- Cl ([…], time 7 day): 105.6 meq/L
- DBIL ([…], time 7 day): 0.018 mg/dL
- GLC ([…], time 7 day): 182.8 mg/dL
- IP ([…], time 7 day): 7.4 mg/dL
- K ([…], time 7 day): 3.9 meq/L
- LDH ([…], time 7 day): 93.8 IU/L
- Na ([…], time 7 day): 143.4 meq/L
- PL ([…], time 7 day): 157.6 mg/dL
- RALB ([…], time 7 day): 2.7 g/dL
- TBIL ([…], time 7 day): 0.032 mg/dL
- TC ([…], time 7 day): 76.4 mg/dL
- TG ([…], time 7 day): 136.6 mg/dL
- TP ([…], time 7 day): 5.8 g/dL
- gamma-GTP ([…], time 7 day): 1 IU/L
- A/G ([…], time 14 day): 0.8
- ALP ([…], time 14 day): 1602.6 IU/L
- ALT ([…], time 14 day): 41.8 IU/L
- AST ([…], time 14 day): 66.6 IU/L
- BUN ([…], time 14 day): 18.6 mg/dL
- CRE ([…], time 14 day): 0.2 mg/dL
- Ca ([…], time 14 day): 10.6 mg/dL
- Cl ([…], time 14 day): 103.6 meq/L
- DBIL ([…], time 14 day): 0.012 mg/dL
- GLC ([…], time 14 day): 204.8 mg/dL
- IP ([…], time 14 day): 7.7 mg/dL
- K ([…], time 14 day): 4 meq/L
- LDH ([…], time 14 day): 123.6 IU/L
- Na ([…], time 14 day): 142.6 meq/L
- PL ([…], time 14 day): 155 mg/dL
- RALB ([…], time 14 day): 2.6 g/dL
- TBIL ([…], time 14 day): 0.028 mg/dL
- TC ([…], time 14 day): 74.4 mg/dL
- TG ([…], time 14 day): 143.8 mg/dL
- TP ([…], time 14 day): 5.8 g/dL
- gamma-GTP ([…], time 14 day): 0.8 IU/L
- A/G ([…], time 28 day): 0.8
- ALP ([…], time 28 day): 1184 IU/L
- ALT ([…], time 28 day): 39 IU/L
- AST ([…], time 28 day): 64.8 IU/L
- BUN ([…], time 28 day): 18.2 mg/dL
- CRE ([…], time 28 day): 0.2 mg/dL
- Ca ([…], time 28 day): 10.8 mg/dL
- Cl ([…], time 28 day): 104.8 meq/L
- DBIL ([…], time 28 day): 0.01 mg/dL
- GLC ([…], time 28 day): 198.4 mg/dL
- IP ([…], time 28 day): 6.7 mg/dL
- K ([…], time 28 day): 3.6 meq/L
- LDH ([…], time 28 day): 99.8 IU/L
- Na ([…], time 28 day): 144.8 meq/L
- PL ([…], time 28 day): 163.8 mg/dL
- RALB ([…], time 28 day): 2.8 g/dL
- TBIL ([…], time 28 day): 0.018 mg/dL
- TC ([…], time 28 day): 77.8 mg/dL
- TG ([…], time 28 day): 165.6 mg/dL
- TP ([…], time 28 day): 6.2 g/dL
- gamma-GTP ([…], time 28 day): 1.6 IU/L
